According to US20180230127A1 (PFIZER INC., priority 2015, published 2018):
pIC50: −log10 of the molar value. Where a name gives a salt, the structure may show the parent alone.

Each molecule was assayed against T1, human IRAK4 kinase domain (aa 154-460) (Homo sapiens, UniProt Q9NWZ3) (assay: IRAK4 Enzymatic DELFIA Assay). Conditions: 0.6 mM ATP (KM); 114 pM IRAK4 kinase domain; 200 nM substrate; 5% DMSO.
T1 construct: human IRAK4 kinase domain (aa 154-460; GenBank ID AF445802)
T1 sequence (Q9NWZ3 154-460): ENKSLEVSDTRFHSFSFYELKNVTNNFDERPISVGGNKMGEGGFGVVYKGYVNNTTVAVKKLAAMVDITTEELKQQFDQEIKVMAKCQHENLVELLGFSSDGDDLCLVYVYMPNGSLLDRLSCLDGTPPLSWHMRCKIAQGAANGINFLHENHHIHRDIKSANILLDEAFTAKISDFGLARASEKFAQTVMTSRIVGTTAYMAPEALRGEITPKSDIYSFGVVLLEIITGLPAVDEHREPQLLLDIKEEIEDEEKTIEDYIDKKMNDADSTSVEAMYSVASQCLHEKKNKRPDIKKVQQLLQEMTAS
Type: biochemical
Procedure: IRAK4 Enzymatic DELFIA Assay.
This is an in vitro assay to measure IRAK4 enzymatic activity utilizing the DELFIA (Dissociation-Enhanced Lanthanide Fluorescent Immunoassay, Perkin-Elmer) platform, with the human IRAK4 kinase domain (aa 154-460) construct to characterize IRAK4 inhibitor and control compounds at 0.6 mM ATP (KM). The final amount of enzyme in the assay is 114 pM IRAK4 kinase domain, final concentration of substrate is 200 nM, and final concentration of DMSO is 5%.
The test compound was solubilized in DMSO to a stock concentration of 30 mM. The dose response plates were prepared with a 2 mM primary compound concentration, and then diluted in DMSO in a four-fold series for a total of 10 data points. Compounds were prepared as a 20-fold multiple of the final in-assay concentration
To begin the assay, 45 μL of reaction mixture containing 20 mM HEPES pH=7.5, 5 mM MgCl2, 0.0025% Brij-35, […], 228 pM phosphorylated recombinant human IRAK4 kinase domain (aa 154-460; GenBank ID AF445802) were aliquoted into Ultra-Clear Polypropylene, 96-well, U-Bottom Plates (Corning Life Sciences). 5 μL of test compound from the dose-response plate was added to the reaction mixture and incubated for 15 minutes at room temperature. Then 50 μL of 20 mM HEPES pH=7.5, 5 mM MgCl2, 0.0025% Brij-35, 600 μM ATP, and 400 nM ERM-biotinylated peptide (AGAGRDKYKTLRQIR) were added to start the reaction. The reaction was incubated for 90 minutes at room temperature and stopped by the addition of 25 μL 0.5M EDTA.
100 μL of the reaction mixture was transferred to a streptavidin coated detection plate (EvenCoat Streptavidin Coated Plates, 96-Well, R&D Systems) and incubated for 30 minutes at room temperature. The plates were washed 4 times with 100 μL per well of PBS containing 0.05% Tween-20. Plates were then incubated with 50 μL per well of antibody cocktail of Anti-pERM antibody (Cell Signaling Technology) diluted 1:5000, plus Anti-Rabbit IgG EuN1 at 0.242 μg/ml (Perkin-Elmer Life Sciences) in a solution of 10 mM MOPS pH=7.5, 150 mM NaCl, 0.05% Tween-20, 0.02% NaN3, 1% BSA, 0.1% Gelatin for 45 minutes. The plates were washed 4× with 100 μL per well of PBS containing 0.05% Tween-20. Then 100 μL per well of DELFIA Enhancement Solution were added to the plate and then read on an EnVision Model 2103 using a 340 nm excitation wavelength and a 665 nm emission detection.

First: CCOc1cc2c(O[C@@H]3CCCNC3)ccnc2cc1C(N)=O [Example 65, (R)-6-ethoxy-4-(piperidin-3-yloxy)quinoline-7-carboxamide hydrochloride]
Second: CC(C)COc1cc2c(O[C@@H]3CCCNC3)ccnc2cc1C(N)=O [Example 76, 6-(2-methylpropoxy)-4-[(3R)-piperidin-3-yloxy]quinoline-7-carboxamide]
The pIC50 of the first is 0.74 log units higher: 6.38 for the first, 5.64 for the second. The first is the more potent here.

First: CC(C)Oc1cc2c(O[C@@H]3[C@@H]4CC=C[C@H]3NC4=O)nccc2cc1C(N)=O [Example 66, 1-{[(1S,5R,8R)-7-oxo-6-azabicyclo[3.2.1]oct-3-en-8-yl]oxy}-7-(propan-2-yloxy)isoquinoline-6-carboxamide]
Second: CC(C)Oc1cc2c(O[C@H]3CCNC3)nccc2cc1C(N)=O [Example 79, 7-(propan-2-yloxy)-1-[(3S)-pyrrolidin-3-yloxy]isoquinoline-6-carboxamide]
The pIC50 of the first is 1.59 log units higher: 7.42 for the first, 5.83 for the second. The first is the more potent here.

`NC(=O)c1cc2nccc(O[C@@H]3CCCNC3)c2cc1OC(F)F` [Example 67, (R)-6-(difluoromethoxy)-4-(piperidin-3-yloxy)quinoline-7-carboxamide] and `CC[C@H](C)Oc1cc2c(O[C@@H]3CCCNC3)ccnc2cc1C(N)=O` [Example 72, 6-[(2S)-butan-2-yloxy]-4-[(3R)-piperidin-3-yloxy]quinoline-7-carboxamide] are within 0.2 log units of each other in pIC50: 5.86 for the first, 5.96 for the second.

Compared with `Cc1cc(O[C@@H]2CCCNC2)c2cc(OC(C)C)c(C(N)=O)cc2n1` [Example 68, (R)-6-isopropoxy-2-methyl-4-(piperidin-3-yloxy)quinoline-7-carboxamide trifluoroacetate], `CC(C)Oc1cc2c(O[C@@H]3CCCNC3)cccc2cc1C(N)=O` [Example 69, (R)-3-isopropoxy-5-(piperidin-3-yloxy)-2-naphthamide trifluoroacetate] is 1.55 log units higher in pIC50: 5.89 for the first, 7.44 for the second.

Going from `CC(C)Oc1cc2c(O[C@H]3CNCC[C@@H]3C)nccc2cc1C(N)=O` [Example 70, 1-{[(3R,4S)-4-methylpiperidin-3-yl]oxy}-7-(propan-2-yloxy)isoquinoline-6-carboxamide] to `CC(C)Oc1cc2c(O[C@H]3CNCC[C@@H]3C)ccnc2cc1C(N)=O` [Example 74, 4-{[(3R,4S)-4-methylpiperidin-3-yl]oxy}-6-(propan-2-yloxy)quinoline-7-carboxamide], the pIC50 falls from 5.90 to 5.55 (0.35 log units). The first is the more potent here.

`CC(C)Oc1cc2c(OC3CCCN(C)C3)ccnc2cc1C(N)=O` (stereo not shown) [Example 71, 4-[(1-methylpiperidin-3-yl)oxyl]-6-(propan-2-yloxy)quinoline-7-carboxamide] and `CC(C)Oc1cc2c(O[C@@H]3CCNC3)ccnc2cc1C(N)=O` [Example 77, 6-(propan-2-yloxy)-4-[(3R)-pyrrolidin-3-yloxy]quinoline-7-carboxamide] are within 0.2 log units of each other in pIC50: 5.92 for the first, 5.91 for the second.

Going from `CC(C)Oc1cc2c(O[C@@H]3CCCNC3)ncc(C#N)c2cc1C(N)=O` [Example 73, 4-cyano-1-[(3R)-piperidin-3-yloxy]-7-(propan-2-yloxy)isoquinoline-6-carboxamide] to `CC(C)Oc1cc2c(O[C@H]3CCCNC3)nccc2cc1C(N)=O` [Example 75, 1-[(3S)-piperidin-3-yloxy]-7-(propan-2-yloxy)isoquinoline-6-carboxamide], the pIC50 falls from 5.80 to 5.51 (0.29 log units). The first is the more potent here.

Going from `CC(C)Oc1cc2c(O[C@H]3CNCC[C@@H]3C)ccnc2cc1C(N)=O` [Example 78, 4-{[(3R,4S)-4-methylpiperidin-3-yl]oxy}-6-(propan-2-yloxy)quinoline-7-carboxamide] to `CC(C)Oc1cc2c(O[C@H]3C[C@H]4CC[C@@H](C3)N4)nccc2cc1C(N)=O` [Example 80, 1-[(3-endo)-8-azabicyclo[3.2.1]oct-3-yloxy]-7-(propan-2-yloxy)isoquinoline-6-carboxamide], the pIC50 rises from 5.52 to 5.88 (0.36 log units).
